From patent US8956160B2, “Device and method for delivering an oral care agent” (Ranir, LLC, priority 2002, dated 2015)

Assay: Accelerated H2O2 stability study with individual ingredients of backing, anchor and oral care layers
Format: physicochemical
Conditions: 40° C./75% RH, up to 9 weeks
Protocol: Accelerated H2O2 stability studies were conducted at 40° C./75% relative humidity (RH) with the individual ingredients used to form the backing, anchor and oral care layers as described in Example 1.

OO [Device H2O2, hydrogen peroxide]
H2O2 stability: good stability
